≈ marks a conversion by molar mass, not a printed value.
Key:
Pyricularia oryzae = experiment: microbe, parasite or virus in culture; type: cell-based; conditions: read-out: MIC (Minimum Inhibitory Concentration)

SMILES	melting point [°C]	MIC (Pyricularia oryzae) [µg/mL]
Fc1cc(F)c(-c2c(Cl)nc3ccnn3c2NC2CCCC2)c(F)c1	128	
CC(C)Nc1c(-c2c(F)cc(F)cc2F)c(Cl)nc2ccnn12	143	
CC(C)N(C)c1c(-c2c(F)cc(F)cc2F)c(Cl)nc2ccnn12	109	
Fc1cc(F)c(-c2c(Cl)nc3ccnn3c2NCC(F)(F)F)c(F)c1 [Example I-7, [5-chloro-6-(2,4,6-trifluoro-phenyl)-pyrazolo[1,5-α]pyrimidin-7-yl]-(2,2,2-trifluoro-ethyl)-amine]		0.78 (≈ 2.05 µM)
CCN(CC)c1c(-c2c(F)cc(F)cc2F)c(Cl)nc2ccnn12	90	
